Article PMC11528320, “S-MGBs bearing amidine tail groups are potent, selective antiplasmodial agents” (RSC Medicinal Chemistry, 2024)
Like-named read-outs stand apart in the source and are kept apart here.

How the values were obtained:
[1] = tested on: double stranded DNA oligo 5′-CGCATATATGCG-3′; test: native mass spectrometry (nESI-MS) of binding to dsDNA oligo; conditions: 9 μM DNA, 100 μM S-MGB
Procedure: DNA oligonucleotide sequence 5′-[…]-3′ was purchased in lyophilized form from Alpha DNA, Canada) and used without further purification, purity assessed by NMR. 100 μM stock solutions of DNA were prepared with 150 mM ammonium acetate solution (Fisher Scientific, Loughborough, Leicestershire, UK) and 2 mM potassium chloride solution (Fisher Scientific, Loughborough, Leicestershire, UK). This solution was annealed at 90 degrees for 10 minutes and allowed to cool to room temperature. 10 mM S-MGB stock in 100% DMSO (Sigma-Aldrich, St. Louis, MO, USA) were diluted to 1 mM S-MGB solution with 150 mM ammonium acetate. Final samples were prepared from this solution to yield final concentrations of 9 μM DNA, 100 μM KCl, and 100 μM s-MGB, 1% DMSO. DNA solutions containing no S-MGB included 1% DMSO and were used as controls.
Native mass spectrometry experiments were carried out on a Synapt G2Si instrument (Waters, Manchester, UK) with a nanoelectrospray ionization source (nESI). Mass calibration was performed by a separate infusion of NaI cluster ions. Solutions were ionized from a thin-walled borosilicate glass capillary (i.d. 0.78 mm, o.d. 1.0 mm, Sutter Instrument Co., Novato, CA, USA) pulled in-house to nESI tip with a Flaming/Brown micropipette puller (Sutter Instrument Co., Novato, CA, USA). A negative potential in range of 1.0–1.2 kV was applied to the solution via a thin platinum wire (diameter 0.125 mm, Goodfellow, Huntingdon, UK). The following non-default instrument parameters were used for the DNA: S-MGB-241 complex: capillary voltage 1.4 kV, sample cone voltage 100 V, source offset 110 V, source temperature 40 °C, trap collision energy 3.0 (V), trap gas 3 mL min^−1. For DNA with no MGB present, the following parameters were changed: capillary voltage 1.0 kV, sample cone voltage 80 V, source offset 95 V and trap gas 4.0 mL min^−1. Data were processed using Masslynx V4.2 and OriginPro 2021, and figures were produced using Chemdraw.

HEK293 cells = test: HEK293 cell viability (resazurin) assay; format: cell-based, Human; conditions: for inhibition at 80 µM: Homo sapiens, HEK293, 72 h; for SI, HEK293/3D7: ratio of HEK293 IC50 (or relative IC50) to P. falciparum 3D7 IC50
Procedure: Cell viability was assessed using a minor modification of the protocol previously described.[14] Human embryonic kidney cells (HEK293) were maintained in Dulbecco's modified Eagle's medium supplemented with 10% foetal bovine serum.

P. falciparum Dd2 = test: in vitro asexual P. falciparum imaging assay, Dd2 strain; format: cell-based; conditions: for IC50: Plasmodium falciparum, DD2, 72 h, read-out: Dd2 IC50; for Dd2/3D7: ratio of Dd2 IC50 to 3D7 IC50 (cross-resistance)
Procedure: (§1) The antiplasmodial in vitro assay was performed as previously described.[13] In brief, P. falciparum parasites (3D7 and Dd2 strains) were grown in RPMI-1640 medium supplemented with 25 mM HEPES, 5% AB human male serum, 2.5 mg mL^−1 Albumax II, and 0.37 mM hypoxanthine. Parasites were subjected to two rounds of sorbitol synchronization prior to compound addition. Ring stage parasites were incubated with compounds in 384-well imaging CellCarrier microplates, for 72 h at 37 °C, 90% N2, 5% CO2, 5% O2, parasites stained with 4′,6-diamidino-2-phenylindole (DAPI) and imaged using an Opera QEHS microplate confocal imaging system (PerkinElmer). Images were analysed as previously described,[13] and raw data normalized using the in-plate positive and negative controls to obtain percent inhibition, used to calculate IC50 values, through a four-parameter logistic curve fitting in Prism (GraphPad).

[2] = tested on: Salmon genomic DNA (gDNA); test: UV-vis DNA thermal melting (thermal shift) with gDNA; format: binding; conditions: 10 μM S-MGB, 0.02 mg mL^−1 salmon gDNA, N = 3; for Tm of S-MGB + gDNA: gDNA alone 70
Procedure: Salmon genomic DNA (gDNA; D1626, Sigma-Aldrich) at 1 mg mL^−1 in 1 mM phosphate buffer (pH 7.4) containing 0.27 mM KCl and 13.7 mM NaCl (P4417, Sigma-Aldrich) was annealed at 90 °C for 10 min and left to cool to room temperature. S-MGBs at 10 mM in DMSO were diluted with the same phosphate buffer to yield a single sample with 10 μM S-MGB and 0.02 mg mL^−1 gDNA in 1 mM phosphate buffer containing 0.27 mM KCl and 13.7 mM NaCl. Control samples containing only S-MGB or gDNA were prepared, respectively. Samples were melted at a rate of 0.5 °C min^−1 from 45 °C to 90 °C with spectra recorded at 260 nm on a UV-1900 UV-vis spectrophotometer fitted with a Peltier temperature controller (Shimadzhu) using LabSolutions (Tm Analysis) software. The melting temperatures (Tms) of the S-MGB:DNA complexes were determined by fitting a sigmoidal function using a Boltzmann distribution in OriginPro.

P. falciparum 3D7 = test: in vitro asexual P. falciparum imaging assay, 3D7 strain; format: cell-based; conditions: Plasmodium falciparum
Procedure: as §1

[3] = 3D7, strain not specified, read-out: potency against P. falciparum (approximate, conclusion)

COc1cccc(/C=C/c2ccc(C(=O)Nc3cc(C(=O)Nc4cc(C(=O)NCCC(=N)N)n(C)c4)n(C)c3)cn2)c1.O=C(O)C(F)(F)F.O=C(O)C(F)(F)F [S-MGB-368]
binding to dsDNA as dimer [DS + 2 M] [1]: bind to DNA as dimers | binding to dsDNA as monomer [DS + 1 M] [1]: no evidence | inhibition at 80 µM (HEK293 cells): 92% | SI, HEK293/3D7 (HEK293 cells): > 335.8 | SI, HEK293/3D7 (HEK293 cells; listed as 368): >335.8 | IC50 (P. falciparum Dd2): 0.2017 ± 0.0003 µM | Dd2/3D7 (P. falciparum Dd2): 1.5 | ΔTm [2]: 3 °C | Tm of S-MGB + gDNA [2]: 73 °C | IC50 (P. falciparum 3D7; 3D7, 72 h, read-out: 3D7 IC50): 0.134 ± 0.0003 µM | IC50 (P. falciparum 3D7; [3]): ~0.1 µM

Cn1cc(NC(=O)c2cc(NC(=O)c3ccc(/C=C/c4ccc5ccccc5c4)cc3)cn2C)cc1C(=O)NCCC(=N)N.O=C(O)C(F)(F)F [S-MGB-359]
binding to dsDNA as dimer [DS + 2 M] [1]: bind to DNA as dimers | binding to dsDNA as monomer [DS + 1 M] [1]: minor peak corresponding to the monomer complex | inhibition at 80 µM (HEK293 cells): 23% | HEK293 top concentration tested, used to calculate SI (HEK293 cells; not rIC50 as < 30% inhibition): 80 nM | SI, HEK293/3D7 (HEK293 cells): > 264.8 | SI, HEK293/3D7 (HEK293 cells; listed as 359): >264.8 | IC50 (P. falciparum Dd2): 0.3186 ± 0.0011 µM | Dd2/3D7 (P. falciparum Dd2): 1.1 | ΔTm [2]: 16 °C | Tm of S-MGB + gDNA [2]: 86 °C | IC50 (P. falciparum 3D7; 3D7, 72 h, read-out: 3D7 IC50): 0.3021 ± 0.0006 µM | IC50 (P. falciparum 3D7; [3]): ~0.1 µM

Cn1cc(NC(=O)c2cc(NC(=O)c3ccc(/C=C/c4ccncc4)cc3)cn2C)cc1C(=O)NCCC(=N)N.O=C(O)C(F)(F)F.O=C(O)C(F)(F)F [S-MGB-365]
binding to dsDNA as dimer [DS + 2 M] [1]: bind to DNA as dimers | binding to dsDNA as monomer [DS + 1 M] [1]: no evidence | inhibition at 80 µM (HEK293 cells): 95% | SI, HEK293/3D7 (HEK293 cells): >612.6 | SI, HEK293/3D7 (HEK293 cells; listed as S-MGB-356): > 612.6 | IC50 (P. falciparum Dd2): 0.0796 ± 0.0002 µM | Dd2/3D7 (P. falciparum Dd2): 1.2 | ΔTm [2]: 12 °C | Tm of S-MGB + gDNA [2]: 82 °C | IC50 (P. falciparum 3D7; 3D7, 72 h, read-out: 3D7 IC50): 0.0653 ± 0.0002 µM | IC50 (P. falciparum 3D7; [3]): ~0.1 µM
